Results on 13 compounds are retold here after patent US20040106682A1, “Novel benzylideneamino guanidines and their uses as ligands to the melnocortin receptors” (priority 2001, published 2004).

Data set [1] has as its target T1, recombinant human MC5 receptor (Homo sapiens, UniProt P33032).
T1 construct: expressed in transfected cells; host or cells: Sf9 insect cells or COS cells
In words: Affinity for the MC5-receptors, 125I-NDP-αMSH binding assay. The settings on record: Sf9 or COS cells transfected with recombinant human MC5, displacement of 125I-NDP-MSH, nb = non-binding, i.e. no affinity; for Ki: read-out: Affinity for MC-receptors, Ki, MC5. The protocol: (§1) Test 2. Affinity for the MC3-receptors, the MC4receptors and the MC5-receptors
(§2) The binding assays were carried out essentially as described by Szardenings et al., J. Biol. Chem. 1997; 272; 27943-27948 and Schiöth et al., FEBS Lett. 1997; 410; 223-228 using I^125-NDP-αMSH as ligand.
(§3) Essentially, the affinity of the compounds for the different melanocortin receptors were determined by using either insect cells (Sf9) or COS cells, which were transfected with recombinant human MC3, MC4 or MC5 receptors. For the determination of the affinity for the MC1 receptor, B16 mouse melanoma cells were used, which endogenously express the (mouse) MC1 receptor.
(§4) The compounds were tested at different concentrations for their ability to displace a ^125I-labelled NDP-MSH from the respective receptor. Incubation was performed in 96-well plates, using 50,000 cells/well (Sf9 or COS cells) up to 200,000 cells/well (mouse melanoma cells).
(§5) The test compound or standard (NDP-MSH) was added in an appropriate concentration (generally between 10^−4 M and 10^−12 M) together with labelled tracer (approx. 50,000 cpm/well) and incubated for 2 hours (at room temperature for Sf9 cells and at +37° C. for COS cells and mouse melanoma cells).
(§6) After the incubation, the cells were washed twice to get rid of the excess tracer and compound, and the cells were lysed with 0.1 M NaOH. The lysate was counted in a gamma-counter, binding was calculated and the affinity determined.

Another data set concerns melanocortin receptors. In words: Affinity/activity on melanocortin receptors (general statements). Type of data set: binding. The settings on record: statement in words, receptor subtype not specified.
In the next data set the target is T2, MC1 receptor (Mus musculus, UniProt Q01727).
T2 construct: B16 mouse melanoma cells were used, which endogenously express the (mouse) MC1 receptor; endogenous in cells; host or cells: B16 mouse melanoma cells
T2 sequence (Q01727 whole entry): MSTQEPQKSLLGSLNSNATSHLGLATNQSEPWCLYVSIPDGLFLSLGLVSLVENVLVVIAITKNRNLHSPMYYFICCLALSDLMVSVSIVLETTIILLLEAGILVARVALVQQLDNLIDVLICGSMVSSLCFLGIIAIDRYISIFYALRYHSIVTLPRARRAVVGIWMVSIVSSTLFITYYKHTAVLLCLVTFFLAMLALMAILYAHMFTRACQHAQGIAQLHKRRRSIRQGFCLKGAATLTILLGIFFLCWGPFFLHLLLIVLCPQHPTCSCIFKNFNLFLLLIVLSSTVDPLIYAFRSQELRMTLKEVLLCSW
In words: Affinity for the MC1-receptor, 125I-NDP-αMSH binding assay. The settings on record: B16 mouse melanoma cells endogenously expressing mouse MC1, displacement of 125I-NDP-MSH, nb = non-binding, i.e. no affinity; for Ki: read-out: Affinity for MC-receptors, Ki, MC1. The protocol:
Test 1. Affinity for the MC1-receptor
The binding assay was carried out essentially as described by Lunec et al., Melanoma Res. 1992; 2; 5-12 using I^125-NDP-αMSH as ligand.
as §3, §4, §5, §6
In general terms: Loss of bound radioactivity is the signal in a displacement assay; it reports binding, not function.

Data set [2] concerns the target T3, recombinant human MC3 receptor (Homo sapiens, UniProt P41968).
T3 construct: expressed in transfected cells; host or cells: Sf9 insect cells or COS cells
The data set is described as follows: Affinity for the MC3-receptors, 125I-NDP-αMSH binding assay. Conditions: Sf9 or COS cells transfected with recombinant human MC3, displacement of 125I-NDP-MSH, nb = non-binding, i.e. no affinity; for Ki: read-out: Affinity for MC-receptors, Ki, MC3. As to the method:
as §1, §2, §3, §4, §5, §6

For data set [3], the target named is T4, recombinant human MC4 receptor (Homo sapiens, UniProt P32245).
T4 construct: expressed in transfected cells; host or cells: Sf9 insect cells or COS cells
T4 sequence (P32245 whole entry): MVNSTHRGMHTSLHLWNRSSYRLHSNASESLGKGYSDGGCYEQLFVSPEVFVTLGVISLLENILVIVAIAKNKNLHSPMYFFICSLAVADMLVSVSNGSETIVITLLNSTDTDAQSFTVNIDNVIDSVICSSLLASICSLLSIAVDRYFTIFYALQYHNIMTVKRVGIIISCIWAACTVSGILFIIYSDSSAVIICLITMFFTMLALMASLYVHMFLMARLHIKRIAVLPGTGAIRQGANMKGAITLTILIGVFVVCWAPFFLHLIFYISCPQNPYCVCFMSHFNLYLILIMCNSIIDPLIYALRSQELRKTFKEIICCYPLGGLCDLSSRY
The data set is described as follows: Affinity for the MC4-receptors, 125I-NDP-αMSH binding assay. The settings on record: Sf9 or COS cells transfected with recombinant human MC4, displacement of 125I-NDP-MSH, nb = non-binding, i.e. no affinity; for Ki: read-out: Affinity for MC-receptors, Ki, MC4. The protocol:
as §1, §2, §3, §4, §5, §6

Each structure is given as a SMILES string. Counter-ions that a name gives are not always drawn.

T3 sequence (P41968 whole entry): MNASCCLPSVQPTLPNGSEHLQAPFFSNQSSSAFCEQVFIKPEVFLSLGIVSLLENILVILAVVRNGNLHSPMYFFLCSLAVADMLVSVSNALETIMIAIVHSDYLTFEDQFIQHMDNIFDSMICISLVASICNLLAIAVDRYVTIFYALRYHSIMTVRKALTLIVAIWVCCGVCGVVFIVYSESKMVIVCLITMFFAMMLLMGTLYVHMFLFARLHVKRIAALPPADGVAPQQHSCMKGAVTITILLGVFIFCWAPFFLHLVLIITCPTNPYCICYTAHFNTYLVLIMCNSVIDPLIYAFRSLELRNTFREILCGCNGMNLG
T1 sequence (P33032 whole entry): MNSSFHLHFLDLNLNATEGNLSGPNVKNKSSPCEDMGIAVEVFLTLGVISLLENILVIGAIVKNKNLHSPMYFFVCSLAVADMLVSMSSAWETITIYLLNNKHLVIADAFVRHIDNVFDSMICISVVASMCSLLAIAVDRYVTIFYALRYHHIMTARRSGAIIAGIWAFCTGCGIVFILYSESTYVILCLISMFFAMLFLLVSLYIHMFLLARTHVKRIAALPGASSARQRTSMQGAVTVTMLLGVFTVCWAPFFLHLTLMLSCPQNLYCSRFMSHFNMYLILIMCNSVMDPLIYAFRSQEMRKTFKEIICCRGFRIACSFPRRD

Regarding `N=C(N)N/N=C/c1c(Cl)cccc1Cl` [Guanobenz, Guanabenz, reference compound], in data set [1], the “Affinity for MC-receptors, Ki, MC5” value is “nb”. Moreover, the “affinity to the melanocortin receptors” value in the data set on melanocortin receptors is recorded as “no affinity”. Also, the “Affinity for MC-receptors, Ki, MC1” value on MC1 receptor is given as “nb”. For the same compound, the “Affinity for MC-receptors, Ki, MC3” value in data set [2] is given as “nb”. Also, in data set [3], the “Affinity for MC-receptors, Ki, MC4” value is reported as “nb”.

As for `N=C(N)NN=Cc1cccc(O)c1O` (as salt: salt) [1:12, N-(2,3-Dihydroxybenzylideneamino)guanidine], the melting point was 223 to 224.5 °C.

`N=C(N)NN=Cc1ccc(I)cc1Br` (as salt: HCl) [1:9, N-(2-Bromo-4-Iodobenzylideneamino)guanidine]: the melting point fell in the range of 236 to 239 °C.

Compound `N=C(N)NN=Cc1cccc(Cl)c1I` (as salt: salt) [1:1, N-(3-Chloro-2-Iodobenzylideneamino)guanidine] came in with a melting point of 231 to 232.5 °C.

Take `N=C(N)NN=Cc1cccc(Cl)c1I` [1:1, N-(3-Chloro-2-Iodobenzylideneamino)guanidine]: the Ki turned out to be 4.9 µM in data set [1], 500 nM at MC1 receptor, 5.8 µM in data set [2] and 10 nM in data set [3].

`COc1cccc(OC)c1C=NNC(=N)N` (as salt: salt) [1:11, N-(2,6-Dimethoxybenzylideneamino)guanidine] had a melting point of 158 to 160 °C.

`N=C(N)NN=Cc1c(Br)cccc1Br` (as salt: HCl) [1:6, N-(2,6-Dibromobenzylideneamino)guanidine] registered a melting point of 178 to 183 °C.

The compound `CCOc1cc(C=NNC(=N)N)c([N+](=O)[O-])c(C(F)(F)F)c1` (as salt: HCl) [1:5, N-(5-Ethoxy-2-Nitro-3-Trifluoromethylbenzylideneamino)guanidine] had a melting point of 92 to 98 °C.

On to `N=C(N)NN=Cc1c(Br)cccc1Br` [1:6, N-(2,6-Dibromobenzylideneamino)guanidine], for which the Ki came out at 29.6 µM in data set [1], 800 nM on MC1 receptor, 22.7 µM in data set [2] and 100 nM in data set [3].

As for `N=C(N)NN=Cc1ccc([N+](=O)[O-])c(Cl)c1Cl` [1:4, N-(2,3-Dichloro-4-Nitrobenzylideneamino)guanidine], the Ki in data set [1] came to 10.7 µM; at MC1 receptor, 3600 nM; in data set [2], 10.1 µM; in data set [3], 12200 nM.

In turn, `N=C(N)NN=Cc1cc(F)ccc1F` (as salt: salt) [1:10, N-(2,5-Difluorobenzylideneamino)guanidine] yielded a melting point of 211 to 212 °C.

Turning to `N=C(N)NN=Cc1ccc([N+](=O)[O-])c(Cl)c1Cl` (as salt: HCl) [1:4, N-(2,3-Dichloro-4-Nitrobenzylideneamino)guanidine], the melting point was in the range of 258 to 262 °C.

`N=C(N)NN=Cc1ccc(Br)cc1I` (as salt: salt) [1:13, N-(4-Bromo-2-iodobenzylideneamino)guanidine] had a melting point of 202 to 207 °C.

The term melting point denotes the temperature, or range, at which the solid turns liquid. Usually Ki stands for a dissociation constant, usually derived from enzyme kinetics or from competition with a known ligand.
